# Assay results: PMC11032351, “Epigenetic modulation through BET bromodomain inhibitors as a novel therapeutic strategy for progranulin-deficient frontotemporal dementia” (Scientific Reports, 2024)
# System: PGRN protein levels
# Experiment: PGRN quantification (Jess) in human NPCs
# Assay type: cell-based
# Conditions: for increase in PGRN protein levels: 1 µM for 24 h; for increase in PGRN: lysed immediately
# Method: PGRN capillary gel electrophoresis experiments were performed using Jess (Bio-Techne) and data were processed and analyzed using Compass for Simple Western software (version 6.0). Runs were conducted using EZ Standard Pack 1 12-230 kDa (Bio-Techne PS-ST01EZ-8), 12-230 kDa pre-filled plates (PS-PP03), 12-230 kDa separation module (SMW004), anti-rabbit HRP detection ([…]-001), and total protein detection modules (DM-TP01, biotin labeling reagent 042-973) according to the manufacturer's instructions, and with anti-PGRN primary (Abcam ab208777) diluted 1:50 in milk-free antibody dilution buffer (043-524). […] All intensity quantifications are normalized to the total protein assay quantification unless otherwise indicated. NPCs were cultured normally in 6-well plates as described previously. Upon reaching confluency, DMSO or MLN-4924 (Cayman #15,217, 10 mM stock in DMSO) were diluted 1:5000 into NPC media with growth factors. 1 mL of media was aspirated from the cell cultures, and 1 mL of MLN-4924 or DMSO dilutions were then added to respective wells (final well concentration: 1 μM MLN-4924 in select wells, 0.01% DMSO for all wells). Plates returned to the incubator. […] Plates returned to the incubator. After 4 h, to the indicated wells is directly added 1 μL 2 mM mivebresib (MedChem Express HY-100015) in DMSO for a final concentration of 1 μM, or 1 μL DMSO. All plates were returned to the incubator overnight. The next day, 24 h from the addition of mivebresib, plates were removed from the incubator, and all wells were washed with 2 mL PBS, and then lysed in 300 μL M-PER lysis buffer with protease inhibitors. Cells were allowed to lyse for 15 min at 4 °C with light nutation, and then lysate was transferred to a 1.5-mL Eppendorf tube which was then spun down at 20 k rcf at 4 °C for 10 min. 200 μL of supernatant was then transferred to a fresh, labeled Eppendorf rube, which was then stored at - 20 °C prior to further analysis. Sample concentration was quantified using the BCA assay as described above, and normalized to 250 μg/mL in M-PER lysis buffer prior to PGRN quantification using the Jess. NPCs were cultured normally as described previously. 6-well plates were seeded at 300,000 cells/well in 2 mL of NPC media with EGF, bFGF, and heparin as described above. Cells were allowed to grow to confluency for three nights at 37 °C with 5% CO2. […] These solutions were then diluted 1:10 in NPC media with growth factors containing 0.2% DMSO to make 100 nM compound solutions. Treatment wells were washed with 2 mL PBS prior to addition of 2 mL NPC media with growth factors containing compound (or DMSO only) at indicated concentrations (3 replicates per condition, 6 DMSO replicates). Plates were then allowed to incubate at 37 °C with 5% CO2 for 24 h. After 24 h, cells were removed from the incubator, washed with 1 mL PBS, and then lysed with 500 μL M-PER lysis buffer (Thermo Fisher #78,501) with 1 cOmplete Mini, EDTA-free protease inhibitor added (Sigma-Aldrich#11,836,170,001) per 15 mL lysis buffer. Plates were allowed to nutate at 4 °C for 15 min before transferring the lysate to 1.5 mL Eppendorf tubes, which were then spun down at 20,000 rcf at 4 °C for 10 min. 400 μL of the supernatant was then transferred to fresh 1.5-mL Eppendorf tubes, which were then frozen down at - 80 °C prior to further use. Samples were removed from the - 80 °C and concentrations were determined via BCA assay (Thermo Scientific #23,227) using a pre-diluted BSA standard (Life Technologies #23,208) on a 96-well polystyrene plate (Thermo Fisher #12,565,500). Samples were diluted to 0.25 mg/mL using M-PER lysis buffer prior to PGRN quantification using the Jess. NPCs were cultured as described above, and seeded onto coated 24-well plates at 150,000 cells/well in 1 mL NPC media with growth factors. Plates were allowed to grow to ~ 100% confluency for three nights at 37 °C with 5% CO2. […] Plates were allowed to incubate overnight at 37 °C with 5% CO2 for 24 h. […]
Compound,increase in PGRN protein levels,other results
"Cn1ccc2c(-c3cccnc3Nc3ccc(F)cc3)c[nH]c2c1=O [Compound 85B, 3-(2-((4-fluorophenyl)amino)pyridin-3-yl)-6-methyl-1,6-dihydro-7H-pyrrolo[2,3-c]pyridin-7-one]",unable to upregulate PGRN,
"Cn1ccc2c(-c3cccnc3Oc3ccc(F)cc3)c[nH]c2c1=O [Compound 18B, 3-[2-(4-fluorophenoxy)pyridin-3-yl]-6-methyl-1,6-dihydro-7H-pyrrolo[2,3-c]pyridin-7-one]",significantly enhance PGRN protein levels,
CCS(=O)(=O)Nc1ccc(Oc2ccc(F)cc2F)c(-c2cn(C)c(=O)c3[nH]ccc23)c1 [mivebresib],,"enhancement of PGRN protein levels (100 nM, 24 h): ~ 120%; enhancement of PGRN protein levels after washout (1 µM for 2 h, then 22 h of incubation post-washout): > twofold; enhancement of PGRN protein levels after washout (1 µM for 8 h, washout, lysis 24 h from compound addition): more pronounced effect; Normalized PGRN (Fold-DMSO) (1 µM mivebresib 24 h, vs matching bar without mivebresib): 1.82 x; Normalized PGRN (Fold-DMSO) (1 µM mivebresib 24 h with 300 nM dBET6): 1.26 x; Normalized PGRN (Fold-DMSO) (1 µM mivebresib 24 h with 1 µM MLN-4924 and 300 nM dBET6): 1.47 x; increase in PGRN (1 µM, 8 h): ~ 1.4 fold; enhancement of PGRN protein levels (1 µM, 24 h): ~140%; increase in PGRN (1 µM, 24 h): ~ 2.7 fold"
"Cn1cc(-c2cc(F)cnc2Oc2ccc(F)cc2)c2cc[nH]c2c1=O [Compound 86A, 4-(5-fluoro-2-(4-fluorophenoxy)pyridin-3-yl)-6-methyl-1,6-dihydro-7H-pyrrolo[2,3-c]pyridin-7-one]",less substantial response,
"Cn1cc(-c2cccnc2Oc2cc(F)cc(F)c2)c2cc[nH]c2c1=O [Compound 82A, 4-(2-(3,5-difluorophenoxy)pyridin-3-yl)-6-methyl-1,6-dihydro-7H-pyrrolo[2,3-c]pyridin-7-one]",> twofold,
"Cn1ccc2c(-c3cccnc3Sc3ccc(F)cc3)c[nH]c2c1=O [Compound 84B, 3-(2-((4-fluorophenyl)thio)pyridin-3-yl)-6-methyl-1,6-dihydro-7H-pyrrolo[2,3-c]pyridin-7-one]",significantly enhance PGRN protein levels,
"Cn1ccc2c(-c3cc(F)cnc3Oc3ccc(F)cc3)c[nH]c2c1=O [Compound 86B, 3-(5-fluoro-2-(4-fluorophenoxy)pyridin-3-yl)-6-methyl-1,6-dihydro-7H-pyrrolo[2,3-c]pyridin-7-one]",unable to upregulate PGRN,
"Cn1cc(-c2cccnc2Nc2ccc(F)cc2)c2cc[nH]c2c1=O [Compound 85A, 4-(2-((4-fluorophenyl)amino)pyridin-3-yl)-6-methyl-1,6-dihydro-7H-pyrrolo[2,3-c]pyridin-7-one]",> twofold,
"Cn1cc(-c2cccnc2Sc2ccc(F)cc2)c2cc[nH]c2c1=O [Compound 84A, 4-(2-((4-fluorophenyl)thio)pyridin-3-yl)-6-methyl-1,6-dihydro-7H-pyrrolo[2,3-c]pyridin-7-one]",less substantial response,
"Cn1cc(-c2cccnc2Oc2ccc(F)cc2)c2cc[nH]c2c1=O [Compound 18A, 4-(2-(4-fluorophenoxy)pyridin-3-yl)-6-methyl-1H-pyrrolo[2,3-c]pyridin-7(6H)-one]",> twofold,
"Cn1cc(-c2cccnc2Oc2ccc(F)c(F)c2)c2cc[nH]c2c1=O [Compound 81A, 4-(2-(3,4-difluorophenoxy)pyridin-3-yl)-6-methyl-1,6-dihydro-7H-pyrrolo[2,3-c]pyridin-7-one]",> twofold,
"Cn1ccc2c(-c3cccnc3Oc3cc(F)cc(F)c3)c[nH]c2c1=O [Compound 82B, 3-(2-(3,5-difluorophenoxy)pyridin-3-yl)-6-methyl-1,6-dihydro-7H-pyrrolo[2,3-c]pyridin-7-one]",significantly enhance PGRN protein levels,
"Cn1ccc2c(-c3cccnc3Oc3ccc(F)c(F)c3)c[nH]c2c1=O [Compound 81B, 3-(2-(3,4-difluorophenoxy)pyridin-3-yl)-6-methyl-1,6-dihydro-7H-pyrrolo[2,3-c]pyridin-7-one]",significantly enhance PGRN protein levels,
